Experimental data taken from ChEMBL document CHEMBL1133438, “Potent acetylcholinesterase inhibitors: design, synthesis and structure-activity relationships of alkylene linked bis-galanthamine and galanthamine-galanthaminium salts” (Bioorg Med Chem Lett, 2000).

Target: Acetylcholinesterase (Electrophorus electricus, UniProt O42275)
Assay: Compound was assessed for in vitro inhibition of Acetylcholinesterase isolated from Electrophorus electricus

Chain of Acetylcholinesterase (O42275 whole entry): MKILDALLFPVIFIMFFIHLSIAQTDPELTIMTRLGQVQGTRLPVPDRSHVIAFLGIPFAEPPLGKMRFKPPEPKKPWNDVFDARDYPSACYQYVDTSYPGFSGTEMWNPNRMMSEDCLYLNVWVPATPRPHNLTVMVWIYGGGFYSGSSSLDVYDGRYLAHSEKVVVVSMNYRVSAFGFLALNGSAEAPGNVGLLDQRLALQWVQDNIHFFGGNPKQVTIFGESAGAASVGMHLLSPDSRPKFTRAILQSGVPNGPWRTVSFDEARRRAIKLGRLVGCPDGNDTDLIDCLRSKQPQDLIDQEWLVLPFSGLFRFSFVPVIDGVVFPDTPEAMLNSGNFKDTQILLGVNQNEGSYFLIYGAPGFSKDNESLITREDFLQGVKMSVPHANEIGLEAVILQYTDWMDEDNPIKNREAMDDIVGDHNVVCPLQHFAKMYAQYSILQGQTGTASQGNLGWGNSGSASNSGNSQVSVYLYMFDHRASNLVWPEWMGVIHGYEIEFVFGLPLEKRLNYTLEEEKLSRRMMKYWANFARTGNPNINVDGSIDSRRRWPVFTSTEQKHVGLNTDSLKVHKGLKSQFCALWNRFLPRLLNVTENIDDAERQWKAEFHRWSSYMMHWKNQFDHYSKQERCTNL

Row | SMILES | IC50 [µM]
1 | COc1ccc2c3c1OC1C[C@@H](O)C=C[C@@]31CCN(CCCCCCCCCCN1CC[C@@]34C=C[C@H](OC)C[C@@H]3Oc3c(OC)ccc(c34)C1)C2 (stereo partly specified) | 0.56
2 | COc1ccc2c3c1OC1C[C@@H](O)C=C[C@@]31CC[N+](CCCCCCCCN1CC[C@@]34C=C[C@H](O)C[C@@H]3Oc3c(OC)ccc(c34)C1)=C2 (stereo partly specified) | 0.022
3 | COc1ccc2c3c1OC1C[C@@H](O)C=C[C@@]31CCN(CCCCCCN1CC[C@@]34C=C[C@H](OC)C[C@@H]3Oc3c(OC)ccc(c34)C1)C2 (stereo partly specified) | 0.45
4 | COc1ccc2c3c1OC1C[C@@H](O)C=C[C@@]31CCN(CCCCCCCCN1CC[C@@]34C=C[C@H](OC)C[C@@H]3Oc3c(OC)ccc(c34)C1)C2 (stereo partly specified) | 0.23
5 | COc1ccc2c3c1OC1C[C@@H](O)C=C[C@@]31CC[N+](CCCCCCN1CC[C@@]34C=C[C@H](O)C[C@@H]3Oc3c(OC)ccc(c34)C1)=C2 (stereo partly specified) | 0.068
6 | COc1ccc2c3c1OC1C[C@@H](O)C=C[C@@]31CC[N+](CCCCCCCCCCN1CC[C@@]34C=C[C@H](O)C[C@@H]3Oc3c(OC)ccc(c34)C1)=C2 (stereo partly specified) | 0.012
